Measurements published in patent US20090074895A1, “COMPOSITION AND USES THEREOF” (VANADIS BIOSCIENCE LTD, priority 2005, published 2009).
Entries after “also recorded” stand apart in the source; their conditions may differ.

Key:
Assay type in all cases: in vivo, rat
[1] = system: diabetic rats; experiment: Serum cholesterol concentrations after 7 day oral treatment of diabetic rats (lovastatin, MKH, combination); conditions: for HDL cholesterol / LDL cholesterol / LDL/HDL ratio / Total cholesterol: 7 day oral treatment, lovastatin 20 mg/kg/day, MKH 2 mg/kg/day, n = 8; for Change in total cholesterol (in words): 7 days oral treatment
[2] = system: normoglycaemic rats; experiment: C peptide serum concentration, normoglycaemic rats; conditions: for Effect on C peptide levels (in words): non-diabetic rats, 5 days treatment; for C peptide serum concentration: normoglycaemic rats, doses daily for 5 days orally, n = 8
Experimental: (§1) In this study white, adult male Wistar rats with average weights between 200 to 300 grams were used. During the study, the animals had free access to food and water and were exposed to changes of dark and light every 12 hours. Access to the food was restricted 12 hours before measurement of glucose blood level with free access to water.
(§2) The experiment was performed on a normoglycaemic group (Group 1, 32 rats, 8 per treatment) and diabetic rats (Group 2, 32 rats, 8 per treatment). For the diabetic rat experiments diabetes was induced with intraperitoneal injection of alloxan 100 mg/kg. Alloxan is very well verified diabetogenic substance for inducing diabetes in rats and other animal species (rabbit, dog, mice et cetera). See, for example, McLetchie, J.R. Coll Physicians Edinb, 32: 134-142, 2002; Lenzen & Panten, Diabetologia, 31: 337-342, 1988; Shaw et al., Lancet, 11: 384-386, 1943; Goldner & Gomori, Endocrinology, 35: 241-268, 1943.
(§3) 1). Saline solution, 1 ml/kg, per orally, daily for 5 days (control group); 2). Stevioside, 20 mg/kg, orally, daily for 5 days; 3). Sodium salt of 3α,7α-dihydroxy-12-oxo-5β-cholanate (monoketocholic acid-MKC), 4 mg/kg, orally, daily for 5 days; and 4). 1 ml/kg of the composition described in Example 1, orally, daily for 5 days.
(§4) 15 minutes after the 5th dose, the animals were exposed to an oral glucose tolerance test (OGTT) using 4 g/kg, orally. Glucose blood concentrations were measured before the treatment, after the 5th dose, before OGTT, and 30 minutes after OGTT. Then the animals were anaesthetised with urethane injected intraperitoneally, 750 mg/kg, and blood samples for further biochemical analyses were taken by cardiopunction.
(§5) All biochemical analyses of serum were done by standard procedures, as recommended by the International Federation for Clinical Chemistry (IFCC), on automatic spectrophotometer LISA 300 plus with International Quality Control. The following were measured in serum:
(§6) 1). Triglycerides concentration (GPO-PAP kit obtained from Boehringer Mannheim GmbH (Mannheim, Germany) in accordance with the manufacturers instructions) 2). Total low density lipoprotein (LDL) and high density lipoprotein (HDL) 3). Cholesterol concentration (CHOD-PAP kit obtained from Boehringer Mannheim GmbH (Mannheim, Germany) in accordance with the manufacturers instructions); and 4). C-peptide concentration.

[3] = system: diabetic Wistar rats; experiment: Blood glucose and OGTT after 5 days oral treatment, alloxan-diabetic rats; conditions: for Glucose blood concentration, After OGTT / Glucose blood concentration, After treatment (one dose daily for 5 days) / Glucose blood concentration, Before treatment: diabetic Wistar rats (alloxan), n = 8; for Glucose blood concentration, After OGTT: 30 minutes after OGTT (glucose 4 g/kg orally) after the 5th dose; for Glucose blood concentration, After treatment (one dose daily for 5 days): MKH 4 mg/kg, stevioside 20 mg/kg orally per day, before OGTT; for Glucose blood concentration, Before treatment: baseline of the group before treatment; for Effect on glucose levels under increased glucose loading during the OGTT (in words): substances given alone, rat group not given
Experimental: as §1, §2, §3
(§7) In the diabetic rat the criterion for successful diabetes induction was blood glucose greater than 20 mmol/L on the third day after the last alloxan dose after 3 hours of fasting with free access to water.
as §4

[4] = system: normoglycaemic rats; experiment: Serum cholesterol and lipid profile after 5 days treatment, normoglycaemic rats; conditions: for Change in HDL serum cholesterol concentration (in words) / Change in LDL serum cholesterol concentration versus control (in words) / Change in total cholesterol serum concentration (in words): normoglycaemic (non-diabetic) rats, 5 days treatment; for HDL serum cholesterol concentration / LDL serum cholesterol concentration / Serum total cholesterol concentration / LDL:HDL Ratio (ratios of means): normoglycaemic rats, n = 8; for HDL serum cholesterol concentration / LDL serum cholesterol concentration / Serum total cholesterol concentration: 5 days treatment orally; for LDL:HDL Ratio (ratios of means): after 5 days treatment
Experimental: as §3, §4, §5, §6
(§8) The composition from Example 1 was trialled to see the effect on cholesterol levels and on serum lipid profiles. Generally the desired outcome was a decrease in low density lipoprotein (LDL), with no concomitant decrease in high density lipoprotein (HDL). It was also hypothesised that there would be a compatibility with glycaemic effects shown in Example 2.
(§9) The experimental procedures were essentially those described in Example 2.

[5] = system: diabetic rats; experiment: Serum cholesterol and lipid profile after 5 days treatment, diabetic rats; conditions: for HDL cholesterol serum concentration / LDL cholesterol serum concentration / Serum total cholesterol concentration: 5 days treatment orally; for HDL cholesterol serum concentration / LDL cholesterol serum concentration / Serum total cholesterol concentration / LDL:HDL Ratio (ratios of means): n = 8; for LDL:HDL Ratio (ratios of means): after 5 days treatment
Experimental: as §2, §3, §4, §5, §6, §8, §9

[6] = system: normoglycaemic Wistar rats; experiment: Blood glucose and oral glucose tolerance test (OGTT) after 5 days oral treatment, normoglycaemic rats; conditions: n = 8; for Glucose blood concentration, After OGTT: 30 minutes after OGTT (glucose 4 g/kg orally) after the 5th dose; for Glucose blood concentration, After treatment (one dose daily for 5 days): MKH 4 mg/kg, stevioside 20 mg/kg orally per day, before OGTT; for Glucose blood concentration, Before treatment: baseline of the group before treatment
Experimental: as §1, §2, §3, §4

[7] = system: diabetic rats; experiment: C peptide serum concentration, diabetic rats; conditions: for C peptide serum concentration: doses daily for 5 days orally, n = 8
Experimental: as §1, §2, §3, §7
15 minutes after the 5th dose, the animals were exposed to an oral glucose tolerance test (OGTT) using 4 g/kg, orally. Glucose blood concentrations were measured before the treatment, after the 5th dose, before OGTT, and 30 minutes after OGTT. […]
All biochemical analyses of serum were done by standard procedures, as recommended by the International Federation for Clinical Chemistry (IFCC), on automatic spectrophotometer LISA 300 plus with International Quality Control. The following were measured in serum: […]

[8] = 7 days treatment, MKH 2 mg/kg, lovastatin 20 mg/kg orally

| SMILES | HDL cholesterol [1] [mmol/L] | LDL cholesterol [1] [mmol/L] | LDL/HDL ratio [1] | Total cholesterol [1] [mmol/L] | Change in total cholesterol (in words) [1] | Change in HDL levels (in words) [1, 8] | Effect on C peptide levels (in words) [2] | C peptide serum concentration [2] [pmol/L] | Glucose blood concentration, After OGTT [3] [mmol/L] | Glucose blood concentration, After treatment (one dose daily for 5 days) [3] | Glucose blood concentration, Before treatment [3] [mmol/L] | Effect on glucose levels under increased glucose loading during the OGTT (in words) [3] | Change in HDL serum cholesterol concentration (in words) [4] | Change in LDL serum cholesterol concentration versus control (in words) [4] | Change in total cholesterol serum concentration (in words) [4] | HDL serum cholesterol concentration [4] [mmol/L] | LDL serum cholesterol concentration [4] [mmol/L] | Serum total cholesterol concentration [4] [mmol/L] | LDL:HDL Ratio (ratios of means) [4] | Change in LDL cholesterol levels (in words) ([5]; 5 days treatment) | other results |
| --- | --- | --- | --- | --- | --- | --- | --- | --- | --- | --- | --- | --- | --- | --- | --- | --- | --- | --- | --- | --- | --- |
| CC[C@H](C)C(=O)O[C@H]1C[C@@H](C)C=C2C=C[C@H](C)[C@H](CC[C@@H]3C[C@@H](O)CC(=O)O3)[C@H]21 [Lovastatin, reference compound] | 0.74 ± 0.16 | 0.09 ± 0.17 | 0.15 ± 0.29 | 1.19 ± 0.06 | reduced total cholesterol by a similar amount | reduced HDLs significantly | – | – | – | – | – | – | – | – | – | – | – | – | – | – | – |
| C[C@H](CCC(=O)[O-])[C@H]1CC[C@H]2[C@@H]3[C@H](O)C[C@@H]4C[C@H](O)CC[C@]4(C)[C@H]3CC(=O)[C@]12C.[Na+] [MKH, Sodium salt of 3α,7α-dihydroxy-12-oxo-5β-cholanate] | 0.89 ± 0.14 | 0.03 ± 0.04 | 0.04 ± 0.04 | 1.21 ± 0.14 | reduced total cholesterol by a similar amount | this effect was not observed; also recorded: did not do so | Neither stevioside or 3α,7α-dihydroxy-12-oxo-5β-cholanate alone had statistically significant effects | 230.87 ± 80.64 | 27.05 ± 1.17 | 22.34 ± 1.15 x mmol/L | 24.73 ± 2.15 | beneficial effects | no significant changes | significantly decreased (one third of control values) | no significant changes | 0.73 ± 0.20 | 0.11 ± 0.04 | 0.99 ± 0.30 | 0.01 | decreases in LDL levels and while these were not statistically significant | Effect on glucose levels before and after the OGTT (in words) ([3]; diabetic rats, 5 days treatment): significant decrease; Change in LDL:HDL ratio (in words) ([5]; 5 days treatment): slight increase; Change in total cholesterol serum concentration (in words) ([5]; 5 days treatment): no significant changes; HDL cholesterol serum concentration [5]: 0.50 ± 0.12 !! mmol/l; LDL cholesterol serum concentration [5]: 0.56 ± 0.17 mmol/L; Serum total cholesterol concentration [5]: 1.03 ± 0.26 mmol/L; Change in HDL levels (in words) ([5]; 5 days treatment, MKH 4 mg/kg): A decrease was observed; LDL:HDL Ratio (ratios of means) [5]: 1.12; Glucose blood concentration, After OGTT [6]: 8.52 ± 3.19 mmol/L; Glucose blood concentration, After treatment (one dose daily for 5 days) [6]: 5.42 ± 1.15 mmol/L; Glucose blood concentration, Before treatment [6]: 6.82 ± 2.15 mmol/L; Change in LDL levels (in words) [1, 8]: very highly significant decrease; also recorded: significantly greater than that achieved by Lovastatin; Change in LDL:HDL ratio (in words) ([1]; Day 7): significant decrease; C peptide serum concentration [7]: 178.38 ± 34.25 pmol/L |
| C=C1C[C@@]23CC[C@H]4[C@@](C)(CCC[C@@]4(C)C(=O)O[C@@H]4O[C@H](CO)[C@@H](O)[C@H](O)[C@H]4O)[C@@H]2CC[C@]1(O[C@@H]1O[C@H](CO)[C@@H](O)[C@H](O)[C@H]1O[C@@H]1O[C@H](CO)[C@@H](O)[C@H](O)[C@H]1O)C3 [Stevioside] | – | – | – | – | – | – | Neither stevioside or 3α,7α-dihydroxy-12-oxo-5β-cholanate alone had statistically significant effects | 294 ± 93.2 | 28.03 ± 1.08 | 22.53 ± 1.07 mmol/L | 25.14 ± 1.87 | beneficial effects | no significant changes | significantly decreased (one third of control values) | no significant changes | 0.78 ± 0.18 | 0.1 ± 0.08 | 1.1 ± 0.30 | 0.13 | highly significant decrease | Change in total cholesterol serum concentration (in words) ([5]; 5 days treatment): no significant changes; HDL cholesterol serum concentration [5]: 0.85 ± 0.20 mmol/L; LDL cholesterol serum concentration [5]: 0.42 ± 0.09 mmol/L; Serum total cholesterol concentration [5]: 1.39 ± 0.31 mmol/L; LDL:HDL Ratio (ratios of means) [5]: 0.49; Glucose blood concentration, After OGTT [6]: 11.4 ± 2.9 mmol/L; Glucose blood concentration, After treatment (one dose daily for 5 days) [6]: 5.47 ± 0.67 mmol/L; Glucose blood concentration, Before treatment [6]: 6.95 ± 0.99 mmol/L; Effect on C-peptide (in words) ([7]; 5 days treatment): significant increases; C peptide serum concentration [7]: 230.12 ± 28.45 pmol/L |
